One may read the IC50 as the midpoint of a concentration-inhibition curve. Usually inhibition stands for the share of the control response that was lost under treatment.

For this assay, the target named is T1, recombinant human ALK enzyme (ALK WT) (Homo sapiens, UniProt Q9UM73).
T1 construct: purchased Carna Biosciences 08-518
The assay is described as follows: ALK WT cell free enzymatic assay (TR-FRET). Type of assay: biochemical. As to conditions: 1 μM ATP; for IC50: 10 point dose response; for inhibition at 0.1 µM: compound at 100 nM; for inhibition at 0.1 µM / inhibition at 1 µM: 30 min pre-incubation; for inhibition at 1 µM: compound at 1 μM. The method, boiled down:
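Recombinant human ALK with 40 nM Ultra Light Poly GT, 1 μM ATP and Eu anti-phosphotyrosine antibody, 1% DMSO, pH 7.1 HEPES; 30 min enzyme-compound pre-incubation, then 30 min reaction. TR-FRET 665/615 ratio; percent inhibition at 100 nM and 1 μM, IC50 from 10-point sigmoidal fit.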
On the technique in general: In TR-FRET formats the signal depends on donor and acceptor labels being close together.

Each structure is given as a SMILES string. Counter-ions that a name gives are not always drawn. Some results are limits rather than exact numbers.

T1 sequence (Q9UM73 1058-1620 limits assumed): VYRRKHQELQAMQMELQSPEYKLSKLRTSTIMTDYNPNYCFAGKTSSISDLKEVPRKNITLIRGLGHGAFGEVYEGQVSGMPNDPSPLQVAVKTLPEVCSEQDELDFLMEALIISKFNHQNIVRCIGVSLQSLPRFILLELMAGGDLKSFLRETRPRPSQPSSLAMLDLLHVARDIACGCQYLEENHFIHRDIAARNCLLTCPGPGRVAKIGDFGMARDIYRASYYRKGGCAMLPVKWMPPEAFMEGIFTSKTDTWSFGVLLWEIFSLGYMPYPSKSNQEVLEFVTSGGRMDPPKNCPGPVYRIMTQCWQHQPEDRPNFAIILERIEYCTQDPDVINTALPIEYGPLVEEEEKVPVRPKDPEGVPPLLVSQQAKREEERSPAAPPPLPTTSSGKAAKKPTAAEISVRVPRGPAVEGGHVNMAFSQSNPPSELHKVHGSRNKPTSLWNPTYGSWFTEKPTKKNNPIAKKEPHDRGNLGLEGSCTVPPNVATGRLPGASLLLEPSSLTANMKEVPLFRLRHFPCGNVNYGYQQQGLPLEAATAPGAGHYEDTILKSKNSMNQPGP

On to `Cc1nn(Cc2cccc(F)c2)c(C)c1-c1c[nH]c2ncc(-c3cccc(OC4CCNCC4)c3)cc12` [Example 96, 3-(1-(3-fluorobenzyl)-3,5-dimethyl-1H-pyrazol-4-yl)-5-(3-(piperidin-4-yloxy)phenyl)-1H-pyrrolo[2,3-b]pyridine], for which the IC50 was < 50 nM, the inhibition at 0.1 µM amounted to 70% and the inhibition at 1 µM worked out at 100%.

For the molecule `c1ccc(CCn2cc(-c3c[nH]c4ncc(-c5cccc(OC6CCNCC6)c5)cc34)cn2)cc1` [Example 97, 3-(1-phenethyl-1H-pyrazol-4-yl)-5-(3-(piperidin-4-yloxy)phenyl)-1H-pyrrolo[2,3-b]pyridine], the IC50 is < 50 nM, the inhibition at 0.1 µM was found to be 76% and the inhibition at 1 µM turned out to be 98%.

As to `c1ccc(CCn2cc(-c3c[nH]c4ncc(-c5cccc(CC6CCNCC6)c5)cc34)cn2)cc1` [Example 98, 3-(1-phenethyl-1H-pyrazol-4-yl)-5-(3-(piperidin-4-ylmethyl)phenyl)-1H-pyrrolo[2,3-b]pyridine], the IC50 lay within 50 to 250 nM, the inhibition at 0.1 µM was 24% and the inhibition at 1 µM worked out at 95%.

As for `Cc1nn(Cc2cccc(F)c2)c(C)c1-c1c[nH]c2ncc(-c3cccc(CC4CCNCC4)c3)cc12` [Example 99, 3-(1-(3-fluorobenzyl)-3,5-dimethyl-1H-pyrazol-4-yl)-5-(3-(piperidin-4-ylmethyl)phenyl)-1H-pyrrolo[2,3-b]pyridine], the IC50 was < 50 nM, the inhibition at 0.1 µM amounted to 89% and the inhibition at 1 µM stood at 99%.

On to `Fc1cccc(Cn2cc(-c3c[nH]c4ncc(-c5ccc(NC6CCNCC6)cc5)cc34)cn2)c1` [Example 100, N-(4-(3-(1-(3-fluorobenzyl)-1H-pyrazol-4-yl)-1H-pyrrolo[2,3-b]pyridin-5-yl)phenyl)piperidin-4-amine], for which the IC50 was < 50 nM, the inhibition at 0.1 µM amounted to 100% and the inhibition at 1 µM amounted to 100%.

As to `Cc1nn(Cc2cccc(F)c2)c(C)c1-c1c[nH]c2ncc(-c3ccc(NC4CCNCC4)cc3)cc12` [Example 101, N-(4-(3-(1-(3-fluorobenzyl)-3,5-dimethyl-1H-pyrazol-4-yl)-1H-pyrrolo[2,3-b]pyridin-5-yl)phenyl)piperidin-4-amine], the IC50 was < 50 nM, the inhibition at 0.1 µM was 99% and the inhibition at 1 µM is 100%.

Take `Fc1cccc(Cn2cc(-c3c[nH]c4ncc(-c5cccc(CC6CCNCC6)c5)cc34)cn2)c1` [Example 102, 3-(1-(3-fluorobenzyl)-1H-pyrazol-4-yl)-5-(3-(piperidin-4-ylmethyl)phenyl)-1H-pyrrolo[2,3-b]pyridine]: the IC50 is < 50 nM, the inhibition at 0.1 µM came to 91% and the inhibition at 1 µM amounted to 100%.

With `C[C@H](O)CN1CCC(c2ccc(-c3cnc4[nH]cc(-c5cnn(Cc6cccc(F)c6)c5)c4c3)cn2)CC1` [Example 102A, (S)-1-(4-(5-(3-(1-(3-fluorobenzyl)-1H-pyrazol-4-yl)-1H-pyrrolo[2,3-b]pyridin-5-yl)pyridin-2-yl)piperidin-1-yl)propan-2-ol], the IC50 is < 50 nM, the inhibition at 0.1 µM worked out at 91% and the inhibition at 1 µM came out at 94%.

As to `NC(=O)CN1CCN(c2ccc(-c3cnc4[nH]cc(-c5cnn(Cc6cccc(F)c6)c5)c4c3)cc2)CC1` [Example 103, 2-(4-(4-(3-(1-(3-fluorobenzyl)-1H-pyrazol-4-yl)-1H-pyrrolo[2,3-b]pyridin-5-yl)phenyl)piperazin-1-yl)acetamide], the IC50 was < 50 nM, the inhibition at 0.1 µM stood at 95% and the inhibition at 1 µM came out at 100%.

As to `C[C@H](O)CN1CCN(c2ccc(-c3cnc4[nH]cc(-c5cnn(Cc6cccc(F)c6)c5)c4c3)cc2)CC1` [Example 104, (S)-1-(4-(4-(3-(1-(3-fluorobenzyl)-1H-pyrazol-4-yl)-1H-pyrrolo[2,3-b]pyridin-5-yl)phenyl)piperazin-1-yl)propan-2-ol], the IC50 is < 50 nM, the inhibition at 0.1 µM is 98% and the inhibition at 1 µM was 100%.

On to `Nc1cc(-c2cnc3[nH]cc(-c4cnn(Cc5cccc(F)c5)c4)c3c2)ccc1N1CCNCC1` [Example 105, 5-(3-(1-(3-fluorobenzyl)-1H-pyrazol-4-yl)-1H-pyrrolo[2,3-b]pyridin-5-yl)-2-(piperazin-1-yl) aniline], for which the IC50 was < 50 nM, the inhibition at 0.1 µM was found to be 98% and the inhibition at 1 µM was determined as 100%.

`CS(=O)(=O)Nc1cc(-c2cnc3[nH]cc(-c4cnn(Cc5cccc(F)c5)c4)c3c2)ccc1N1CCNCC1` [Example 106, N-(5-(3-(1-(3-fluorobenzyl)-1H-pyrazol-4-yl)-1H-pyrrolo[2,3-b]pyridin-5-yl)-2-(piperazin-1-yl)phenyl)methanesulfonamide hydrochloride]: the IC50 was < 50 nM, the inhibition at 0.1 µM turned out to be 97% and the inhibition at 1 µM is 100%.

For `CS(=O)(=O)Nc1cc(-c2cnc3[nH]cc(-c4cnn(CCc5ccccc5)c4)c3c2)ccc1N1CCNCC1` [Example 107, N-(5-(3-(1-phenethyl-1H-pyrazol-4-yl)-1H-pyrrolo[2,3-b]pyridin-5-yl)-2-(piperazin-1-yl)phenyl) methanesulfonamide hydrochloride], the IC50 is < 50 nM, the inhibition at 0.1 µM is 99% and the inhibition at 1 µM turned out to be 100%.

For the molecule `NC(=O)N1CCN(c2ccc(-c3cnc4[nH]cc(-c5cnn(Cc6cccc(F)c6)c5)c4c3)cc2)CC1` [Example 108, 4-(4-(3-(1-(3-fluorobenzyl)-1H-pyrazol-4-yl)-1H-pyrrolo[2,3-b]pyridin-5-yl)phenyl)piperazine-1-carboxamide], the IC50 is < 50 nM, the inhibition at 0.1 µM stood at 97% and the inhibition at 1 µM stood at 100%.

As for `CN1CCN(c2ccc(-c3cnc4[nH]cc(-c5cnn(CCc6ccccc6)c5)c4c3)cc2)CC1` [Example 109, 5-(4-(4-methylpiperazin-1-yl)phenyl)-3-(1-phenethyl-1H-pyrazol-4-yl)-1H-pyrrolo[2,3-b]pyridine], the inhibition at 0.1 µM worked out at 76% and the inhibition at 1 µM is 100%.

On to `CS(=O)(=O)Nc1cc(-c2cnc3[nH]cc(-c4cnn(Cc5cccc(F)c5)c4)c3c2)ccc1N1CCN(CC(N)=O)CC1` [Example 110, 2-(4-(4-(3-(1-(3-fluorobenzyl)-1H-pyrazol-4-yl)-1H-pyrrolo[2,3-b]pyridin-5-yl)-2-(methylsulfonamido)phenyl)piperazin-1-yl)acetamide], for which the IC50 is < 50 nM, the inhibition at 0.1 µM stood at 94% and the inhibition at 1 µM is 98%.

For the molecule `Fc1cc(F)cc(Cn2ccc(-c3c[nH]c4ncc(-c5ccc(N6CCNCC6)cc5)cc34)n2)c1` [Example 111, 3-(1-(3,5-difluorobenzyl)-1H-pyrazol-3-yl)-5-(4-(piperazin-1-yl)phenyl)-1H-pyrrolo[2,3-b]pyridine], the IC50 was < 50 nM, the inhibition at 0.1 µM was 82% and the inhibition at 1 µM worked out at 100%.

On to `COc1cc(-c2cnc3[nH]cc(-c4cnn(Cc5cccc(F)c5)c4)c3c2)ccc1N1CCN(C[C@H](C)O)CC1` [Example 112, (S)-1-(4-(4-(3-(1-(3-fluorobenzyl)-1H-pyrazol-4-yl)-1H-pyrrolo[2,3-b]pyridin-5-yl)-2-methoxyphenyl)piperazin-1-yl)propan-2-ol], for which the inhibition at 0.1 µM is 90% and the inhibition at 1 µM was determined as 100%.

With `CS(=O)(=O)Nc1cc(-c2cnc3[nH]cc(-c4ccn(Cc5cc(F)cc(F)c5)n4)c3c2)ccc1N1CCNCC1` [Example 113, N-(5-(3-(1-(3,5-difluorobenzyl)-1H-pyrazol-3-yl)-1H-pyrrolo[2,3-b]pyridin-5-yl)-2-(piperazin-1-yl)phenyl)methanesulfonamide], the IC50 was < 50 nM, the inhibition at 0.1 µM stood at 90% and the inhibition at 1 µM worked out at 97%.

With `C[C@H](O)CN1CCN(c2ccc(-c3cnc4[nH]cc(-c5cnn(Cc6cccc(F)c6)c5)c4c3)cc2F)CC1` [Example 114, (S)-1-(4-(2-fluoro-4-(3-(1-(3-fluorobenzyl)-1H-pyrazol-4-yl)-1H-pyrrolo[2,3-b]pyridin-5-yl)phenyl)piperazin-1-yl)propan-2-ol], the inhibition at 0.1 µM was 92% and the inhibition at 1 µM is 99%.

As to `Cc1cc(-c2cnc3[nH]cc(-c4cnn(Cc5cccc(F)c5)c4)c3c2)ccc1N1CCN(C[C@H](C)O)CC1` [Example 115, (S)-1-(4-(4-(3-(1-(3-fluorobenzyl)-1H-pyrazol-4-yl)-1H-pyrrolo[2,3-b]pyridin-5-yl)-2-methylphenyl)piperazin-1-yl)propan-2-ol], the inhibition at 0.1 µM was 94% and the inhibition at 1 µM came to 100%.

Regarding `COc1cc(N2CCN(C[C@H](C)O)CC2)ccc1-c1cnc2[nH]cc(-c3cnn(Cc4cccc(F)c4)c3)c2c1` [Example 116, (S)-1-(4-(4-(3-(1-(3-fluorobenzyl)-1H-pyrazol-4-yl)-1H-pyrrolo[2,3-b]pyridin-5-yl)-3-methoxyphenyl)piperazin-1-yl)propan-2-ol], the IC50 was 50 to 250 nM, the inhibition at 0.1 µM is 68% and the inhibition at 1 µM is 97%.

On to `C[C@H](O)CN1CCN(c2ccc(-c3cnc4[nH]cc(-c5cnn(CCc6ccccc6)c5)c4c3)cc2)CC1` [Example 117, (S)-1-(4-(4-(3-(1-phenethyl-1H-pyrazol-4-yl)-1H-pyrrolo[2,3-b]pyridin-5-yl)phenyl)piperazin-1-yl)propan-2-ol], for which the IC50 is < 50 nM, the inhibition at 0.1 µM was 91% and the inhibition at 1 µM came out at 95%.

For the molecule `C[C@H](O)CN1CCN(c2ccc(-c3cnc4[nH]cc(-c5cnn(Cc6ccccc6)c5)c4c3)cc2)CC1` [Example 118, (S)-1-(4-(4-(3-(1-benzyl-1H-pyrazol-4-yl)-1H-pyrrolo[2,3-b]pyridin-5-yl)phenyl)piperazin-1-yl)propan-2-ol], the IC50 is < 50 nM, the inhibition at 0.1 µM was found to be 94% and the inhibition at 1 µM came out at 98%.
